# Measured values as given in PMC9329436, “Optimization of the 4-anilinoquin(az)oline scaffold as epidermal growth factor receptor (EGFR) inhibitors for chordoma utilizing a toxicology profiling assay platform” (Scientific Reports, 2022).
# Where two headings read alike, the source gives them in different places.
# Assays:
# Type in all cases: biochemical
# [1] = biological target: T1, 320 wild-type protein kinases (Homo sapiens, UniProt P35626); details: singlicate
# T1 sequence (P35626 1-688): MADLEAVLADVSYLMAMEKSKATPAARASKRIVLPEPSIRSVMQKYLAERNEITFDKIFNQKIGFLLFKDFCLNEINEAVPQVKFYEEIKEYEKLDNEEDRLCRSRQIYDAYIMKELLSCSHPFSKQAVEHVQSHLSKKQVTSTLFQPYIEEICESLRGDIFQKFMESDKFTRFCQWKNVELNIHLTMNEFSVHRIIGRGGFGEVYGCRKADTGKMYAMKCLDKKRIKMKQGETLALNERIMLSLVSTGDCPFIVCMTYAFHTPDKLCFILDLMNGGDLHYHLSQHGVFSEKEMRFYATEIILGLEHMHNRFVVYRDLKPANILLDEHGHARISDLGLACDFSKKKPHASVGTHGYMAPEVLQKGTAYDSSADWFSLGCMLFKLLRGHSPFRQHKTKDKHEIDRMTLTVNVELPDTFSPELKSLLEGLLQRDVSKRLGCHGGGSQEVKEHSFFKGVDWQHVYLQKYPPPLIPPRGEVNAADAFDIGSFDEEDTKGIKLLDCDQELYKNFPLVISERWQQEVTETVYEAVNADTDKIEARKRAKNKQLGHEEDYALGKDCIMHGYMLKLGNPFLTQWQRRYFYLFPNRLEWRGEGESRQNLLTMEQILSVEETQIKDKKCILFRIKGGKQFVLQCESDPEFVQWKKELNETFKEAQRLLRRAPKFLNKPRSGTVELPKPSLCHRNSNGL
# Excerpt: (§1) Table S4. Profiling of two compounds at two concentrations against 320 wild-type protein kinases; singlicate measurement; Residual activities (% of control).
# [2] = biological target: T2, 320 wild-type protein kinases (Homo sapiens, UniProt P36897); details: kinase TGFB-R1, singlicate
# T2 sequence (P36897 34-503): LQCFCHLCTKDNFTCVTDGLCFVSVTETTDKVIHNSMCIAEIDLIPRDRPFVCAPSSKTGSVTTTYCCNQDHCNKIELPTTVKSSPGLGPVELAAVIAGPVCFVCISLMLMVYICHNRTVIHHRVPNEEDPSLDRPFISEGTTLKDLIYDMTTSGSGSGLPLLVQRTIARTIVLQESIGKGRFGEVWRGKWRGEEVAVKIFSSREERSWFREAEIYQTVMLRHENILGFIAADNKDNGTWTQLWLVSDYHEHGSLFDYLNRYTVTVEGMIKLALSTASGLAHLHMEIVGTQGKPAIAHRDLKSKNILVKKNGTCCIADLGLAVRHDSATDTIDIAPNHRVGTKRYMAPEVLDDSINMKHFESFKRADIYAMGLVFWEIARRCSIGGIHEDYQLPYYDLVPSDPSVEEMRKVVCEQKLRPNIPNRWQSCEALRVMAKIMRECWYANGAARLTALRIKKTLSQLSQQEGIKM
# Excerpt: as §1
# [3] = biological target: T3, 320 wild-type protein kinases (Homo sapiens, UniProt Q9BZL6); details: singlicate
# T3 sequence (Q9BZL6 1-878): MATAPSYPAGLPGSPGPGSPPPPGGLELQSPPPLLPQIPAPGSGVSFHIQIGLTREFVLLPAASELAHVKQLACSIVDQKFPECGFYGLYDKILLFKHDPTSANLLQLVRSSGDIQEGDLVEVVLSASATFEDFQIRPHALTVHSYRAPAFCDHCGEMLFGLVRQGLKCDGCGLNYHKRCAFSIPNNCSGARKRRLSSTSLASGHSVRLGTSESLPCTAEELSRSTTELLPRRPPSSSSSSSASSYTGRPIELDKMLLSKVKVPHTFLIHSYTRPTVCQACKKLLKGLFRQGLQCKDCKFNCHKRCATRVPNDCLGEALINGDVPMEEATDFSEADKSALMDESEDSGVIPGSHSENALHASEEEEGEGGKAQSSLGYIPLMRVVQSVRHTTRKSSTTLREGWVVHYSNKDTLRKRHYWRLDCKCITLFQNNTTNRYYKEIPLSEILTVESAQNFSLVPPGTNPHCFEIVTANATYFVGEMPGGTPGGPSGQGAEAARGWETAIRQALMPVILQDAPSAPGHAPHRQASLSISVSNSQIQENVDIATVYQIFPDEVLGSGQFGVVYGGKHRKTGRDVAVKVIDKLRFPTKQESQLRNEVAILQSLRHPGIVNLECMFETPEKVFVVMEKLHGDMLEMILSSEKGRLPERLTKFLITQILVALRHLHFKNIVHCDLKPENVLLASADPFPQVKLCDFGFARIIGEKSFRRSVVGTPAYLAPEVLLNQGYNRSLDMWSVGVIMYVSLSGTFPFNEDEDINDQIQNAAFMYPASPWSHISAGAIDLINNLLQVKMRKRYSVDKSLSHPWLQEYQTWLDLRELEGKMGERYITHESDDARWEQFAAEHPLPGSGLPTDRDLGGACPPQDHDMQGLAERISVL
# Excerpt: as §1
# [4] = biological target: 320 wild-type protein kinases (Homo sapiens, UniProt P00519); details: singlicate
# Chain of 320 wild-type protein kinases (Homo sapiens, UniProt P00519) (P00519 whole entry): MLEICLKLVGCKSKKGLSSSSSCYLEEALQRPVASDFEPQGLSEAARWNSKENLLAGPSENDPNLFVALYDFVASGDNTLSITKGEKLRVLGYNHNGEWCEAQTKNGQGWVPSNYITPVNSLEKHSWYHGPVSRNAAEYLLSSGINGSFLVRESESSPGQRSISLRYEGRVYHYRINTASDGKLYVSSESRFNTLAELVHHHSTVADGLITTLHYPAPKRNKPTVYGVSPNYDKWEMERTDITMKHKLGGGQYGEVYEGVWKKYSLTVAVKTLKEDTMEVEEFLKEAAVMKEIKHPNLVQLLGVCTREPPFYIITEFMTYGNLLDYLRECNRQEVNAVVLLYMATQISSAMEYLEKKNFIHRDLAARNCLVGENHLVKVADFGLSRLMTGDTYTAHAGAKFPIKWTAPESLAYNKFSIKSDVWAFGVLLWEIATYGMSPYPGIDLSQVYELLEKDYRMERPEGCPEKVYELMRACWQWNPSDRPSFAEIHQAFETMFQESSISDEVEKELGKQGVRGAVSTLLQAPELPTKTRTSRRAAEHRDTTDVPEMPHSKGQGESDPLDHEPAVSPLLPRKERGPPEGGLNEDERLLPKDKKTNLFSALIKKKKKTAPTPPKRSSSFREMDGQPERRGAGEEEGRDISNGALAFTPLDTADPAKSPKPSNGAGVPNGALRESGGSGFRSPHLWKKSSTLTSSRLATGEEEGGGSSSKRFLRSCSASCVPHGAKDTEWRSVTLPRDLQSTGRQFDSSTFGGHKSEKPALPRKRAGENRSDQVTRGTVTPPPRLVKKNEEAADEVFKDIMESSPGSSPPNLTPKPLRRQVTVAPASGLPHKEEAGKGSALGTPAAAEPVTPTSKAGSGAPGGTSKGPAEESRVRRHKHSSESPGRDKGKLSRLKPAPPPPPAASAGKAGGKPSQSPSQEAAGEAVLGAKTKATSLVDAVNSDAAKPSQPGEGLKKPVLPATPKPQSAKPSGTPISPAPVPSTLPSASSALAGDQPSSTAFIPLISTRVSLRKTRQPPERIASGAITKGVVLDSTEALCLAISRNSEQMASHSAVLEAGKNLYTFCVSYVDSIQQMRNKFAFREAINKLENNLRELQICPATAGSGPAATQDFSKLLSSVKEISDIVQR
# Excerpt: as §1
# [5] = biological target: T4, 320 wild-type protein kinases (Homo sapiens, UniProt O15264); details: p38-delta, singlicate
# T4 sequence (O15264 1-365): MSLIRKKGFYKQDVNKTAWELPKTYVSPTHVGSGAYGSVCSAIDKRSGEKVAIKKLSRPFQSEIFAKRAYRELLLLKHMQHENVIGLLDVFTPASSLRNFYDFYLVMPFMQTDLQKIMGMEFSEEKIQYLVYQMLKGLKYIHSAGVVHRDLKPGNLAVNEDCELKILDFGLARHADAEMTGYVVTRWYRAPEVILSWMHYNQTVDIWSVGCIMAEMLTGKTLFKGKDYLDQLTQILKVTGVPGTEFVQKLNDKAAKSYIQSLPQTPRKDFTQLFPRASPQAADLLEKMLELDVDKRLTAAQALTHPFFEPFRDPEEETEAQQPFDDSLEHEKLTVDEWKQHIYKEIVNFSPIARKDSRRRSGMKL
# Excerpt: as §1
structure (smiles),measurement,setting,value
C#Cc1cc(Nc2ncnc3cc(I)ccc23)ccc1Cl [Compound 41],Residual activity,"[1]; GRK3, 1.0E-06 M",127 % of control
same,Residual activity,"[1]; GRK3, 1.0E-07 M",131 % of control
same,"Residual activity, TGFB-R1",[2]; assay conc. 1.0E-06 M,81 % of control
same,"Residual activity, TGFB-R1",[2]; assay conc. 1.0E-07 M,86 % of control
same,Residual activity,"[3]; PRKD2, 1.0E-06 M",84 % of control
same,Residual activity,"[3]; PRKD2, 1.0E-07 M",97 % of control
same,Residual activity,"[4]; ABL1, 1.0E-06 M",72 % of control
same,Residual activity,"[4]; ABL1, 1.0E-07 M",85 % of control
same,Residual activity,[5]; 1.0E-06 M,94 % of control
same,Residual activity,[5]; 1.0E-07 M,112 % of control
C#Cc1cc(Nc2ncnc3cc(OC)c(OC)cc23)ccc1Cl [Compound 45],Residual activity,"[1]; GRK3, 1.0E-06 M",118 % of control
same,Residual activity,"[1]; GRK3, 1.0E-07 M",123 % of control
same,"Residual activity, TGFB-R1",[2]; assay conc. 1.0E-06 M,75 % of control
same,"Residual activity, TGFB-R1",[2]; assay conc. 1.0E-07 M,84 % of control
same,Residual activity,"[3]; PRKD2, 1.0E-06 M",73 % of control
same,Residual activity,"[3]; PRKD2, 1.0E-07 M",80 % of control
same,Residual activity,"[4]; ABL1, 1.0E-06 M",59 % of control
same,Residual activity,"[4]; ABL1, 1.0E-07 M",100 % of control
same,Residual activity,[5]; 1.0E-06 M,94 % of control
same,Residual activity,[5]; 1.0E-07 M,111 % of control
